melting point: 216 to 218 °C
Compound: CC(=O)O.N=C(N)c1ccc(CNC(=O)[C@H]2CCCN2C(=O)C(O)C2CCCCC2)cc1 (stereo partly shown) [Example 3, (D)-2-Cyclohexyl-2-hydroxyacetylproline p-amidinobenzylamide Acetate]

Reference: patent US6900319B2, “Thrombin inhibitors” (Abbott GmbH & Co. KG, priority 1995, dated 2005)
